From paper PMC11963983 (2025)

Test system: ΔSite1-PK-riboCdA (RNA, riboswitch) GGGAAGACAAACAUGCCGAAUCCGAAAGGUACCGAGGAACCGCUUUUUGGCGCUAAUCUGCUGUGAAGCAGCAGUAGGGAUACCUUCUGUCCCGCGCGCGACAGCUAACUCGGGAGGGCAUAAAGGAAGGAGAUUUGCAGUG
Experiment: smFRET, high-FRET
Details: 50 mM Na+, 0.75 mM Mg2+; 10 mM Tris-HCl pH 8.0, room temperature

EC50: ~ 78.9 μM
Structure (SMILES): Nc1ncnc2c1ncn2[C@@H]1O[C@@H]2COP(=O)(O)O[C@H]3[C@@H](O)[C@H](n4cnc5c(N)ncnc54)O[C@@H]3COP(=O)(O)O[C@H]2[C@H]1O
